Measurements as given in ChEMBL document CHEMBL3734748, “Design, synthesis, and biological activity of N-alkylated analogue of NCL1, a selective inhibitor of lysine-specific demethylase 1” (Medchemcomm, 2015).
Calls of active or inactive are those of the source. No cut-off for these calls is given here.

Tests used:
[1] = molecular target: T1, Lysine-specific histone demethylase 1A (Homo sapiens, UniProt O60341); assay: Inhibition of full length human fusion His6 tagged LSD1 expressed in Escherichia coli BL21(DE3) cells using H3K4me2 peptide substrate preincubated for 5 mins by peroxidase-coupled method
HeLa = assay: Antiproliferative activity against human HeLa cells assessed as growth inhibition after 48 h by MTT assay; assay type: functional
SH-SY5Y = assay: Antiproliferative activity against human SH-SY5Y cells assessed as growth inhibition after 48 h by MTT assay; assay type: functional
[2] = molecular target: T1, Lysine-specific histone demethylase 1A; assay: Inhibition of LSD1 in human SH-SY5Y cells assessed as induction of H3K4me2 accumulation at 30 uM after 24 hrs by Western blot method; assay type: cell-based
[3] = molecular target: T2, Amine oxidase [flavin-containing] A (Homo sapiens, UniProt P21397); assay: Inhibition of MAOA (unknown origin)
T2 sequence (P21397 whole entry): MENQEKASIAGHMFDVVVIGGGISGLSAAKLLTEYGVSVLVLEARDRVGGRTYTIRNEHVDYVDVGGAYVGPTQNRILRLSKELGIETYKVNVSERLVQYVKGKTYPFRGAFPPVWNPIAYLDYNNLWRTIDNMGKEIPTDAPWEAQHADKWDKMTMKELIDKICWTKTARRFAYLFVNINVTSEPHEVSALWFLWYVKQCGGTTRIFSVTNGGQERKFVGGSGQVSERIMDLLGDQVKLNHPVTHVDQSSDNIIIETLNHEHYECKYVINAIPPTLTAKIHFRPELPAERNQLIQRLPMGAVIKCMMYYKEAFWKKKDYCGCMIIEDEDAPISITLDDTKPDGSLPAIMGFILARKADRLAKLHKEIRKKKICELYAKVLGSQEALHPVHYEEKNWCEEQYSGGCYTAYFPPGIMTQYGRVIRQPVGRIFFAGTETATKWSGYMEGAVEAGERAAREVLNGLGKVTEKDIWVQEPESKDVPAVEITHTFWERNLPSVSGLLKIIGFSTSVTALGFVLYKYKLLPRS

[4] = molecular target: T1, Lysine-specific histone demethylase 1A; assay: Inhibition of full length human fusion His6 tagged LSD1 expressed in Escherichia coli BL21(DE3) cells assessed as FAD-NCL1 adduct formation at 100 uM incubated for 22 hrs by MALDI-TOF mass spectrometry
[5] = molecular target: T1, Lysine-specific histone demethylase 1A; assay: Inhibition of LSD1 in human SH-SY5Y cells assessed as induction of H3K4me2 accumulation at 10 uM after 24 hrs by Western blot method; assay type: cell-based
[6] = molecular target: T1, Lysine-specific histone demethylase 1A; assay: Time-dependent inhibition of full length human fusion His6 tagged LSD1 expressed in Escherichia coli BL21(DE3) cells using H3K4me2 peptide substrate preincubated for 5 mins by peroxidase-coupled method
[7] = molecular target: T1, Lysine-specific histone demethylase 1A; assay: Time-dependent inhibition of full length human fusion His6 tagged LSD1 expressed in Escherichia coli BL21(DE3) cells assessed as enzyme inactivation using H3K4me2 peptide substrate preincubated for 5 mins by peroxidase-coupled method
[8] = molecular target: T3, Amine oxidase [flavin-containing] B (Homo sapiens, UniProt P27338); assay: Inhibition of MAOB (unknown origin)
T3 sequence (P27338 whole entry): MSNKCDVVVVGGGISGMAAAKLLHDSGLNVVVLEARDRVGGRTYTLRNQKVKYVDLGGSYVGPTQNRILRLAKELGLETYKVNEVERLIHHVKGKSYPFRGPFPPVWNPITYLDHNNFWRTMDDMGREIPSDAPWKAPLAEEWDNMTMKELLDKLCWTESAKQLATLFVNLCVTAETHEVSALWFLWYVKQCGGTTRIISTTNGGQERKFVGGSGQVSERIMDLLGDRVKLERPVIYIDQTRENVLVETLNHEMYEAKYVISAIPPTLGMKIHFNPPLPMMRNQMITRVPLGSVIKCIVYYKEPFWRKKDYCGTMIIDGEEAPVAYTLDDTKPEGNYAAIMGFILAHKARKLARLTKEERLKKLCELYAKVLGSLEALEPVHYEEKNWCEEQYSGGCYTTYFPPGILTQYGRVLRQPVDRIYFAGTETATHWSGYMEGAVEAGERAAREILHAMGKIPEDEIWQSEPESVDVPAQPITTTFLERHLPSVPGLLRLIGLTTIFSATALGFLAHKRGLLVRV

[9] = molecular target: T1, Lysine-specific histone demethylase 1A; assay: Potency index, ratio of IC50 for NCL1 to IC50 for test compound against full length human fusion His6 tagged LSD1 expressed in Escherichia coli BL21(DE3) cells

IC50 [1] [µM] | GI50 (HeLa) [µM] | GI50 (SH-SY5Y) [µM] | inhibition [2] | IC50 [3] [µM] | inhibition [4] | inhibition [5] | Ki [6] [µM] | inhibition ([6]; TDE = time-dependent effect) | Kinact [7] [s⁻¹] | IC50 [8] [µM] | Ratio IC50 [9] | Compound
2.4 | > 240 | > 240 |  |  |  |  |  |  |  |  |  | CN1CCN(C(=O)CNC2CC2c2cccc(O)c2)CC1 (configuration not stated)
 | 13 | 27 |  |  |  |  |  |  |  |  |  | NC1CC1c1cccc(OCC[C@H](NC(=O)c2ccccc2)C(=O)NCc2ccccc2)c1 (some centres not stated)
0.38 | 109 | 42 | Active | > 100 | Active | Active | 2.4 | tde | 0.0035 | > 100 | 6 | CN1CCN(C(=O)CNC2CC2c2cccc(OCC[C@H](NC(=O)c3ccccc3)C(=O)NCc3ccccc3)c2)CC1 (some centres not stated)
